Assay results from patent US6573275B1, “Bicyclic amines” (Syngenta Limited, priority 1995, dated 2003).

These molecules were tested on peach aphid (Myzus persicae) (assay: Insecticidal test against peach aphid, infested Chinese cabbage leaves sprayed). Settings: peach aphid (Myzus persicae) on Chinese cabbage leaves, sprayed with 500 ppm composition unless otherwise stated, mortality assessed after 3 days.
Format: in vivo
How it was run: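 Aphid-infested Chinese cabbage leaves were sprayed with compound at 500 ppm unless otherwise stated, formulated in acetone/ethanol diluted with water containing 0.05% Synperonic NP8. Mortality was assessed after 3 days.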
In the case of `CC(C)NC(C)(CN1C2CCC1CC(C#N)(c1cncc(Cl)c1)C2)c1ccccc1` (stereo not drawn) [Compound 191, exo-3-(5-chloropyrid-3-yl)-endo-3-cyano-8-(2-(isopropylamino)-2-phenylprop-1-yl)-8-azabicyclo[3.2.1]octane], the “Score (grading of mortality)” value is reported as “A (A indicates 80-100% mortality)”.
For `CC(c1ccccc1)(C(O)C#N)N1C2CCC1CC(C#N)(c1cncc(Cl)c1)C2` (stereo not drawn) [Compound 192, exo-3-(5-chloropyrid-3-yl)-endo-3-cyano-8-(1-hydroxy-1-cyano-2-phenylprop-2-yl)-8-azabicyclo[3.2.1]octane], the “Score (grading of mortality)” value was “A (A indicates 80-100% mortality)”.
In the case of `C#Cc1cncc(C2(C#N)CC3CCC(C2)N3C)c1` (stereo not drawn) [Compound 193, exo-3-(5-ethynylpyrid-3-yl)-endo-3-cyano-8-methyl-8-azabicyclo[3.2.1]octane], the “Score (grading of mortality)” value is reported as “A (A indicates 80-100% mortality)”.
`CN1C2CCC1CC(C#N)(c1ccncn1)C2` (centres unmarked) [Compound 194] was tested, and the “Score (grading of mortality)” value was “A (A indicates 80-100% mortality)”.
With `C=C(OCC)c1cncc(C2(C#N)CC3CCC(C2)N3C)c1` (stereo not drawn) [Compound 195, exo-3-(5-(1-ethoxyvinyl)pyrid-3-yl)-endo-3-cyano-8-methyl-8-azabicyclo[3.2.1]octane] the “Score (grading of mortality)” value was “A (A indicates 80-100% mortality)”.
For `CCC(C)(C)N1C2CCC1CC(C#N)(c1cccnc1)C2` (centres unmarked) [Compound 196], the “Score (grading of mortality)” value was “A (A indicates 80-100% mortality)”.
With `CCOC(=O)C(C)N1C2CCC1CC(C#N)(c1cncc(Cl)c1)C2` (stereo not drawn) [Compound 197, exo-3-(5-chloropyrid-3-yl)-endo-3-cyano-8-(1-(ethoxycarbonyl)ethyl)-8-azabicyclo[3.2.1]octane] the “Score (grading of mortality)” value was “A (A indicates 80-100% mortality)”.
For `CN1C2CCC1CC(C#N)(c1ncncc1Br)C2` (centres unmarked) [Compound 198], the “Score (grading of mortality)” value was “A (A indicates 80-100% mortality)”.
For `N#CC1(c2cncc(C(F)(F)F)c2)CC2CCC(C1)N2CC(F)(F)F` (centres unmarked) [Compound 199], the “Score (grading of mortality)” value was “A (A indicates 80-100% mortality)”.
In the case of `CN1C2CCC1CC(C#N)(c1cc(-c3ccncn3)ncn1)C2` (centres unmarked) [Compound 200], the “Score (grading of mortality)” value is reported as “A (A indicates 80-100% mortality)”.
In the case of `CC(=O)c1cncc(C2(C#N)CC3CCC(C2)N3C)c1` (stereo not drawn) [Compound 201, exo-3-(5-acetylpyrid-3-yl)-endo-3-cyano-8-methyl-8-azabicyclo[3.2.1]octane], the “Score (grading of mortality)” value is reported as “A (A indicates 80-100% mortality)”.
For `CN1C2CCC1CC(C#N)(c1cncc(F)c1)C2` (stereo not drawn) [Compound 202, exo-3-(5-fluoropyrid-3-yl)-endo-3-cyano-8-methyl-8-azabicyclo[3.2.1]octane], the “Score (grading of mortality)” value was “A (A indicates 80-100% mortality)”.
With `N#CC1(c2cncc(Br)c2)CC2CCC(C1)N2` (centres unmarked) [Compound 203] the “Score (grading of mortality)” value was “A (A indicates 80-100% mortality)”.
With `N#CC1(c2cncc(Br)c2)CC2CCC(C1)N2Cc1ccccc1Cl` (centres unmarked) [Compound 204] the “Score (grading of mortality)” value was “A (A indicates 80-100% mortality)”.
In the case of `CC(C)(c1cccc(Cl)c1)N1C2CCC1CC(C#N)(c1cncc(Cl)c1)C2` (centres unmarked) [Compound 205], the “Score (grading of mortality)” value is reported as “A (A indicates 80-100% mortality)”.
For `CN1C2CCC1CC(C#N)(c1cncc(C(C)(C)O)c1)C2` (centres unmarked) [Compound 206], the “Score (grading of mortality)” value was “A (A indicates 80-100% mortality)”.
`C#CC(C)(C)N1C2CCC1CC(C#N)(c1cncc(Cl)c1)C2` (centres unmarked) [Compound 207] was tested, and the “Score (grading of mortality)” value was “A (A indicates 80-100% mortality)”.
For `CCOC(=O)N1C2CCC1CC(C#N)(c1cncc(Br)c1)C2` (centres unmarked) [Compound 208], the “Score (grading of mortality)” value was “A (A indicates 80-100% mortality)”.
`CC(C)(N1C2CCC1CC(C#N)(c1cncc(Cl)c1)C2)C(F)(F)F` (stereo not drawn) [Compound 209, exo-3-(5-chloropyrid-3-yl)-endo-3-cyano-8-(1,1-dimethyl-2,2,2-trifluoroethyl)-8-azabicyclo[3.2.1]octane] was tested, and the “Score (grading of mortality)” value was “A (A indicates 80-100% mortality)”.
For `CC(C)CN1C2CCC1CC(C#N)(c1cncc(Br)c1)C2` (centres unmarked) [Compound 210], the “Score (grading of mortality)” value was “A (A indicates 80-100% mortality)”.
For `COc1cncc(C2(C#N)CC3CCC(C2)N3C)n1` (centres unmarked) [Compound 214], the “Score (grading of mortality)” value was “A (A indicates 80-100% mortality)”.
In the case of `N#CC(c1cccc(Cl)c1)N1C2CCC1CC(C#N)(c1cncc(Cl)c1)C2` (centres unmarked) [Compound 215], the “Score (grading of mortality)” value is reported as “A (A indicates 80-100% mortality)”.
For `C=COC(=O)N1C2CCC1CC(C#N)(c1cncc(-c3ccccc3)c1)C2` (stereo not drawn) [Compound 217, exo-3-(5-phenylpyrid-3-yl)-endo-3-cyano-8-(vinyloxycarbonyl)-8-azabicyclo[3.2.1]octane], the “Score (grading of mortality)” value was “A (A indicates 80-100% mortality)”.
In the case of `N#CC1(c2cncc(Cl)c2)CC2CCC(C1)N2CCC=C(F)F` (centres unmarked) [Compound 218], the “Score (grading of mortality)” value is reported as “A (A indicates 80-100% mortality)”.
`N#CC1(c2cncc(-c3ccccc3)c2)CC2CCC(C1)N2` (stereo not drawn) [Compound 220, exo-3-(5-phenylpyrid-3-yl)-endo-3-cyano-8-azabicyclo[3.2.1]octane] was tested, and the “Score (grading of mortality)” value was “A (A indicates 80-100% mortality)”.
In the case of `C=COC(=O)N1C2CCC1CC(C#N)(c1cncc(C)c1)C2` (stereo not drawn) [Compound 221, exo-3-(5-methylpyrid-3-yl)-endo-3-cyano-8-(vinyloxycarbonyl)-8-azabicyclo[3.2.1]octane], the “Score (grading of mortality)” value is reported as “A (A indicates 80-100% mortality)”.
With `C=COC(=O)N1C2CCC1CC(C#N)(c1cncc(C(=O)OCC)c1)C2` (stereo not drawn) [Compound 222, exo-3-(5-(ethoxycarbonyl)pyrid-3-yl)-endo-3-cyano-8-(vinyloxycarbonyl)-8-azabicyclo[3.2.1]octane] the “Score (grading of mortality)” value was “C (C indicates less than 40% mortality)”.
For `CC(C)(C#N)N1C2CCC1CC(C#N)(c1cncc(Cl)c1)C2` (stereo not drawn) [Compound 223, exo-3-(5-chloropyrid-3-yl)-endo-3-cyano-8-(2-cyanoprop-2-yl)-8-azabicyclo[3.2.1]octane], the “Score (grading of mortality)” value was “C (C indicates less than 40% mortality)”.
With `CCOC(=O)c1cncc(C2(C#N)CC3CCC(C2)N3)c1` (centres unmarked) [Compound 225] the “Score (grading of mortality)” value was “A (A indicates 80-100% mortality)”.
For `N#CC1(c2cncc(Cl)c2)CC2CCC(C1)N2Cc1cc(C(F)(F)F)cc(C(F)(F)F)c1` (centres unmarked) [Compound 227], the “Score (grading of mortality)” value was “A (A indicates 80-100% mortality)”.
With `N#CC1(c2cncc(Cl)c2)CC2CCC(C1)N2Cc1c(F)cccc1F` (centres unmarked) [Compound 228] the “Score (grading of mortality)” value was “A (A indicates 80-100% mortality)”.
`N#CC1(c2cncc(Cl)c2)CC2CCC(C1)N2Cc1cccc(Oc2ccccc2)c1` (centres unmarked) [Compound 229] was tested, and the “Score (grading of mortality)” value was “A (A indicates 80-100% mortality)”.
With `N#CC1(c2cncc(Cl)c2)CC2CCC(C1)N2Cc1ccc(F)c(Br)c1` (centres unmarked) [Compound 230] the “Score (grading of mortality)” value was “A (A indicates 80-100% mortality)”.
For `N#CC1(c2cncc(Cl)c2)CC2CCC(C1)N2Cc1cccc(C(=O)c2ccccc2)c1` (centres unmarked) [Compound 231], the “Score (grading of mortality)” value was “A (A indicates 80-100% mortality)”.
`N#CC1(c2cncc(Cl)c2)CC2CCC(C1)N2Cc1cccc(C(=O)c2c(Cl)cccc2Cl)c1` (centres unmarked) [Compound 232] was tested, and the “Score (grading of mortality)” value was “A (A indicates 80-100% mortality)”.
For `N#CC1(c2cncc(Cl)c2)CC2CCC(C1)N2Cc1cccc(C(=O)c2c(F)cccc2F)c1` (centres unmarked) [Compound 233], the “Score (grading of mortality)” value was “A (A indicates 80-100% mortality)”.
With `C=CCc1c(F)c(F)c(CN2C3CCC2CC(C#N)(c2cncc(Cl)c2)C3)c(F)c1F` (centres unmarked) [Compound 234] the “Score (grading of mortality)” value was “A (A indicates 80-100% mortality)”.
In the case of `N#CC1(c2cncc(Cl)c2)CC2CCC(C1)N2Cc1cccc(OC(F)(F)F)c1` (centres unmarked) [Compound 235], the “Score (grading of mortality)” value is reported as “A (A indicates 80-100% mortality)”.
In the case of `N#CC1(c2cncc(Cl)c2)CC2CCC(C1)N2Cc1cccc2ccccc12` (centres unmarked) [Compound 236], the “Score (grading of mortality)” value is reported as “A (A indicates 80-100% mortality)”.
With `N#C[C@@]1(c2cncc(Cl)c2)C[C@H]2CC[C@@H](C1)N2Cc1ccccc1` [Compound 237, exo-3-(5-chloropyrid-3-yl)-endo-3-cyano-8-benzyl-8-azabicyclo[3.2.1]octane] the “Score (grading of mortality)” value was “A (A indicates 80-100% mortality)”.
`N#CC1(c2cncc(Cl)c2)CC2CCC(C1)N2Cc1ccccc1Br` (centres unmarked) [Compound 238] was tested, and the “Score (grading of mortality)” value was “A (A indicates 80-100% mortality)”.
For `Cc1ccccc1CN1C2CCC1CC(C#N)(c1cncc(Cl)c1)C2` (centres unmarked) [Compound 239], the “Score (grading of mortality)” value was “A (A indicates 80-100% mortality)”.
`N#CC1(c2cncc(Cl)c2)CC2CCC(C1)N2Cc1cccc(Br)c1` (centres unmarked) [Compound 240] was tested, and the “Score (grading of mortality)” value was “A (A indicates 80-100% mortality)”.
With `COC(=O)c1cccc(CN2C3CCC2CC(C#N)(c2cncc(Cl)c2)C3)c1` (centres unmarked) [Compound 241] the “Score (grading of mortality)” value was “A (A indicates 80-100% mortality)”.
`Cc1cccc(CN2C3CCC2CC(C#N)(c2cncc(Cl)c2)C3)c1` (centres unmarked) [Compound 242] was tested, and the “Score (grading of mortality)” value was “A (A indicates 80-100% mortality)”.
In the case of `N#CC1(c2cncc(Cl)c2)CC2CCC(C1)N2Cc1ccc(Br)cc1` (centres unmarked) [Compound 243], the “Score (grading of mortality)” value is reported as “A (A indicates 80-100% mortality)”.
`CC(C)(C)C(=O)c1ccc(CN2C3CCC2CC(C#N)(c2cncc(Cl)c2)C3)cc1` (centres unmarked) [Compound 245] was tested, and the “Score (grading of mortality)” value was “A (A indicates 80-100% mortality)”.
`CC(C)(C)c1ccc(CN2C3CCC2CC(C#N)(c2cncc(Cl)c2)C3)cc1` (centres unmarked) [Compound 246] was tested, and the “Score (grading of mortality)” value was “A (A indicates 80-100% mortality)”.
For `CC(C)c1ccc(CN2C3CCC2CC(C#N)(c2cncc(Cl)c2)C3)cc1` (centres unmarked) [Compound 247], the “Score (grading of mortality)” value was “A (A indicates 80-100% mortality)”.
For `Cc1ccc(CN2C3CCC2CC(C#N)(c2cncc(Cl)c2)C3)cc1` (centres unmarked) [Compound 248], the “Score (grading of mortality)” value was “A (A indicates 80-100% mortality)”.
